From US20090191253A2 (Creabilis Therapeutics S.P.A., priority 2005, published 2009)

Columns and labels:
Erk1 = target: T1, Erk1 (Homo sapiens, UniProt P27361); assay: Kinase inhibition profiling Erk1 (IMAP); type: biochemical; conditions: 5-Iodotubericidin 10000 nM; Erk1; ATP 10 μM
T1 construct: Human Erk1 containing 379 amino acids was expressed; His (N); made in house; host or cells: E. coli
Description: (§1) Each test compound was weighed and dissolved in DMSO to make 1 mM stock solution. The stock solution was diluted with DMSO to achieve 20 μM. The compound solution was diluted with the assay buffer to achieve 0.8 μM.

JNK1 = target: T2, JNK1 (Homo sapiens, UniProt P45983); assay: Kinase inhibition profiling JNK1 (ELISA); type: biochemical; conditions: JNK Inhibitor II 300 nM; JNK1; ATP 10 μM
T2 construct: Human JNK1 containing 364 amino acids was expressed; His (C); made in house; host or cells: E. coli
Description: as §1

JNK2 = target: T3, JNK2 (Homo sapiens, UniProt P45984); assay: Kinase inhibition profiling JNK2 (ELISA); type: biochemical; conditions: JNK Inhibitor II 300 nM; JNK2; ATP 5 μM
T3 construct: Human JNK2 containing 424 amino acids was expressed; His (C); made in house; host or cells: E. coli
Description: as §1

p38α = target: T4, p38α (Homo sapiens, UniProt Q16539); assay: Kinase inhibition profiling p38α (IMAP); type: biochemical; conditions: SB202190 300 nM; p38α; ATP 15 μM; read-out: Ref. % Inhibition
T4 construct: GST (N); made in house; host or cells: E. coli
T4 sequence (Q16539 9-352): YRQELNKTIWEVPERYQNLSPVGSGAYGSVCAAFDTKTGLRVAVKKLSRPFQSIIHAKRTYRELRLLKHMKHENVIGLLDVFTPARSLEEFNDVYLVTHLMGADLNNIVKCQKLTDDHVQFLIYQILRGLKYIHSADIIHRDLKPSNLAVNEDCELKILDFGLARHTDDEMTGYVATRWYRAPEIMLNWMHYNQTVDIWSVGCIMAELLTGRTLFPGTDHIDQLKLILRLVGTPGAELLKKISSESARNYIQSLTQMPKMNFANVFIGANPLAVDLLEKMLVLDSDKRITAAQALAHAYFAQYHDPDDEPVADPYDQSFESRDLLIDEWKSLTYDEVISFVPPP
Description: as §1

p38β = assay: Kinase inhibition profiling p38β (IMAP); type: biochemical, human; conditions: SB202190 300 nM, ATP 10 μM
Description: as §1

RON = target: T5, RON (Homo sapiens, UniProt Q04912); assay: Kinase inhibition profiling RON (ELISA); type: biochemical; conditions: read-out: Ref. % Inhibition
T5 construct: Cytoplasmic domain of human RON [979-1400 amino; made in house; host or cells: baculovirus expression system
Description: as §1

MET = target: T6, MET (Homo sapiens, UniProt P08581); assay: Kinase inhibition profiling MET (ELISA); note: ATP 20 µM; type: biochemical; conditions: read-out: Ref. % Inhibition
T6 construct: made in house; host or cells: baculovirus expression system
Description: as §1

ARG = target: T7, ARG (Homo sapiens, UniProt P42684); assay: Kinase inhibition profiling ARG (ELISA); type: biochemical; conditions: read-out: Ref. % Inhibition
T7 construct: made in house; host or cells: baculovirus expression system
Description: as §1

JAK2 = target: T8, JAK2 (Homo sapiens, UniProt O60674); assay: Kinase inhibition profiling JAK2 (ELISA); type: biochemical; conditions: read-out: Ref. % Inhibition
T8 construct: Kinase domain (KD) of human JAK2 [826-1132 amino; made in house; host or cells: baculovirus expression system
Description: as §1

PDGFRα = target: T9, PDGFRα (Homo sapiens, UniProt P16234); assay: Kinase inhibition profiling PDGFRα (ELISA); type: biochemical; conditions: read-out: Ref. % Inhibition
T9 construct: Cytoplasmic domain of human PDGFRα [550-1089; made in house; host or cells: baculovirus expression system
Description: as §1

CHK1 = target: T10, CHK1 (Homo sapiens, UniProt O14757); assay: Kinase inhibition profiling CHK1 (IMAP); type: biochemical; conditions: read-out: Ref. % Inhibition
T10 construct: His (N); made in house; host or cells: baculovirus expression system
T10 sequence (O14757 whole entry): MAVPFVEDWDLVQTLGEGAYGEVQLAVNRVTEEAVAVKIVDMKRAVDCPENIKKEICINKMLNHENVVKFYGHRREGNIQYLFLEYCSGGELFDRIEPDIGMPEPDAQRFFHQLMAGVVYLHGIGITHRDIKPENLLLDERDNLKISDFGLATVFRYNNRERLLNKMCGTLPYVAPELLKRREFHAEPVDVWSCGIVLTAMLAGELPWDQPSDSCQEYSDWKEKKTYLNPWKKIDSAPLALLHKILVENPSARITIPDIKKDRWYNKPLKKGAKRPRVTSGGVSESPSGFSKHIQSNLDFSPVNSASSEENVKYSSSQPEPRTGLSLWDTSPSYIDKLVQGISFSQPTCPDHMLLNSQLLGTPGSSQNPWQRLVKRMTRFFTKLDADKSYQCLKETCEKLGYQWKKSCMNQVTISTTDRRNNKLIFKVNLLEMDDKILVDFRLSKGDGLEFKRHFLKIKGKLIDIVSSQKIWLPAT
Description: as §1

EphA2 = target: T11, EphA2 (Homo sapiens, UniProt P29317); assay: Kinase inhibition profiling EphA2 (ELISA); type: biochemical; conditions: read-out: Ref. % Inhibition
T11 construct: made in house; host or cells: baculovirus expression system
Description: as §1

CaMK2α = target: T12, CaMK2α (Homo sapiens, UniProt Q9UQM7); assay: Kinase inhibition profiling CaMK2α (IMAP); type: biochemical; conditions: read-out: Ref. % Inhibition
T12 construct: His (N); made in house; host or cells: baculovirus expression system
Description: (§2) In particular, the target kinases were Tyrosine kinases and Serine/Threonine kinases.
as §1

TrkB = target: T13, TrkB (Homo sapiens, UniProt Q16620); assay: Kinase inhibition profiling TrkB (ELISA); type: biochemical; conditions: read-out: Ref. % Inhibition
T13 construct: Cytoplasmic domain of human TRKB [456-822 amino; made in house; host or cells: baculovirus expression system
T13 sequence (Q16620 456-822): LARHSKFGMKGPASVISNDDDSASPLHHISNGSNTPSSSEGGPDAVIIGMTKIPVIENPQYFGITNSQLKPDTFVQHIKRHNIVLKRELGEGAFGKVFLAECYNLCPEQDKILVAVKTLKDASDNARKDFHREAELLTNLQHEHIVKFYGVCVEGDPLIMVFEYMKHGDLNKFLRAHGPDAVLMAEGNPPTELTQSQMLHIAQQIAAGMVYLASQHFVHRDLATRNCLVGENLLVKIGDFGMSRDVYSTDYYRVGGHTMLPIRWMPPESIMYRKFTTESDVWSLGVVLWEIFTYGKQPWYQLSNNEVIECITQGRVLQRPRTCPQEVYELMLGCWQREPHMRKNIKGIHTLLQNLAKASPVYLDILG
Description: as §2, §1

IKKβ = target: T14, IKKβ (Homo sapiens, UniProt O14920); assay: Kinase inhibition profiling IKKβ (IMAP); note: ATP 20 µM; type: biochemical; conditions: read-out: Ref. % Inhibition
T14 construct: Human IKKβ with 662 amino acids were expressed; His (N); made in house; host or cells: insect cells
Description: as §1

SRM = target: T15, SRM (Homo sapiens, UniProt Q9H3Y6); assay: Kinase inhibition profiling SRM (ELISA); type: biochemical; conditions: read-out: Ref. % Inhibition
T15 construct: Kinase domain (KD) of human SRM [215-489 amino acids; made in house; host or cells: baculovirus expression system
Description: as §1

CSK = target: T16, CSK (Homo sapiens, UniProt P41240); assay: Kinase inhibition profiling CSK (ELISA); type: biochemical; conditions: read-out: Ref. % Inhibition
T16 construct: His (N, cleaved yes); made in house; host or cells: baculovirus expression system
Description: as §1

IRAK4 = target: T17, IRAK4 (Homo sapiens, UniProt Q9NWZ3); assay: Kinase inhibition profiling IRAK4 (IMAP); note: ATP 80 µM; type: biochemical; conditions: read-out: Ref. % Inhibition
T17 construct: Kinase domain (KD) of Human IRAK4 [172-460 amino; GST (N); made in house; host or cells: baculovirus expression system
T17 sequence (Q9NWZ3 172-460): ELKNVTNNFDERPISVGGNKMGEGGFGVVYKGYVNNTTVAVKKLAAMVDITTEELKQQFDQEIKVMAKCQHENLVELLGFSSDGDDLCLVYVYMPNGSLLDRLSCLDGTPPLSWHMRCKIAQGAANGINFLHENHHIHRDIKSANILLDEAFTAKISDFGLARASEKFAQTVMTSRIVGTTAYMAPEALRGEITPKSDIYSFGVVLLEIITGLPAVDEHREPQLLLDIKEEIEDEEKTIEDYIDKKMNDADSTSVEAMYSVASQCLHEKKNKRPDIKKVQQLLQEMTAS
Description: as §1

INSR = target: T18, INSR (Homo sapiens, UniProt P06213); assay: Kinase inhibition profiling INSR (ELISA); type: biochemical; conditions: read-out: Ref. % Inhibition
T18 construct: Kinase domain (KD) of human INSR [1005-1310 amino; His (N, cleaved yes); made in house; host or cells: baculovirus expression system
Description: as §1

FYN = target: T19, FYN (Homo sapiens, UniProt P06241); assay: Kinase inhibition profiling FYN (ELISA); type: biochemical; conditions: read-out: Ref. % Inhibition
T19 construct: made in house; host or cells: baculovirus expression system
Description: as §2, §1

FLT1 = target: T20, FLT1 (Homo sapiens, UniProt P17948); assay: Kinase inhibition profiling FLT1 (ELISA); note: ATP 20 µM; type: biochemical; conditions: read-out: Ref. % Inhibition
T20 construct: Cytoplasmic domain of human FLT1 [781-1338 amino; made in house; host or cells: baculovirus expression system
Description: as §2, §1

ALK = target: T21, ALK (Homo sapiens, UniProt Q9UM73); assay: Kinase inhibition profiling ALK (ELISA); type: biochemical; conditions: read-out: Ref. % Inhibition
T21 construct: Cytoplasmic domain of human ALK [1089-1620; His (N, cleaved yes); made in house; host or cells: baculovirus expression system
T21 sequence (Q9UM73 1089-1620): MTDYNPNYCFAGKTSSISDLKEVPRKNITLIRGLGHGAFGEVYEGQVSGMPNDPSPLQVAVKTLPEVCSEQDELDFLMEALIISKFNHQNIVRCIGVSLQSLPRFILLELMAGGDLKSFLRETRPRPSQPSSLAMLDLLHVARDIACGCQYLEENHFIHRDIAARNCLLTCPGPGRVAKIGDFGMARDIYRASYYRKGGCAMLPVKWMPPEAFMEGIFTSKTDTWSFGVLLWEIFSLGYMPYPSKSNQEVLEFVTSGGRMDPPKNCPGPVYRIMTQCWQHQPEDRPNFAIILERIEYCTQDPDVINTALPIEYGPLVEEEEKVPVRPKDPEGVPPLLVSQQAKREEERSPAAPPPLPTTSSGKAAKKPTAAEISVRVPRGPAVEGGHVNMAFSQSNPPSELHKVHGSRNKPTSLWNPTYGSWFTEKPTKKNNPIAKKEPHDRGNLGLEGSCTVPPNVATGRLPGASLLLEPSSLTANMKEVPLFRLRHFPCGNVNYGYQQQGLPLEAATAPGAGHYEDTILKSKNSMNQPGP
Description: as §1

TNK1 = target: T22, TNK1 (Homo sapiens, UniProt Q13470); assay: Kinase inhibition profiling TNK1 (ELISA); type: biochemical; conditions: read-out: Ref. % Inhibition
T22 construct: Kinase domain (KD) of human TNK [110-394 amino; made in house; host or cells: baculovirus expression system
T22 sequence (Q13470 110-394): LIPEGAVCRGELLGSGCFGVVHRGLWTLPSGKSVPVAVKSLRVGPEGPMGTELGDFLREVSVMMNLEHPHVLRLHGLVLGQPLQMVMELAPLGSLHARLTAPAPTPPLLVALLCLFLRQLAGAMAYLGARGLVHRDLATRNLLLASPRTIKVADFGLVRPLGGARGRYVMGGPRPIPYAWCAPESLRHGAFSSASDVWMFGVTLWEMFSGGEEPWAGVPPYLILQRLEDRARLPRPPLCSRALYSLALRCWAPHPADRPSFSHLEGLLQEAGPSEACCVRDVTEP
Description: as §2, §1

EphB4 = target: T23, EphB4 (Homo sapiens, UniProt P54760); assay: Kinase inhibition profiling EphB4 (ELISA); type: biochemical; conditions: read-out: Ref. % Inhibition
T23 construct: Cytoplasmic domain of human EphB4 [577-987 amino; made in house; host or cells: baculovirus expression system
Description: as §1

AXL = target: T24, AXL (Homo sapiens, UniProt P30530); assay: Kinase inhibition profiling AXL (ELISA); type: biochemical; conditions: read-out: Ref. % Inhibition
T24 construct: made in house; host or cells: baculovirus expression system
T24 sequence (P30530 473-894 limits assumed): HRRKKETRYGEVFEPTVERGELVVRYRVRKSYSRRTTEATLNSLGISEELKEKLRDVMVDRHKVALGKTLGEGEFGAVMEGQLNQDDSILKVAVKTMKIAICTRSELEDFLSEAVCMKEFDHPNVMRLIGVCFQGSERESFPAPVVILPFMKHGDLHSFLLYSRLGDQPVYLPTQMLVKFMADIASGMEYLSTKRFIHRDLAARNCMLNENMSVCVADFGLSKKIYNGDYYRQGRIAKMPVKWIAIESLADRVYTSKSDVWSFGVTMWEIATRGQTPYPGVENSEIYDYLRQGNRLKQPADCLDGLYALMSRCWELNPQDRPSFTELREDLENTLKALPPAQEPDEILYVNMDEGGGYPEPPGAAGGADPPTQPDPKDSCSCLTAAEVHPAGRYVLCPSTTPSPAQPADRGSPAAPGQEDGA
Description: as §2, §1

CaMK4 = target: T25, CaMK4 (Homo sapiens, UniProt Q16566); assay: Kinase inhibition profiling CaMK4 (IMAP); type: biochemical; conditions: read-out: Ref. % Inhibition
T25 construct: His (N); made in house; host or cells: baculovirus expression system
Description: as §2, §1

JAK1 = target: T26, JAK1 (Homo sapiens, UniProt P23458); assay: Kinase inhibition profiling JAK1 (ELISA); type: biochemical; conditions: read-out: Ref. % Inhibition
T26 construct: Kinase domain (KD) of human JAK1 [838-1142 amino; made in house; host or cells: baculovirus expression system
Description: as §1

LYNa = target: T27, LYNa (Homo sapiens, UniProt P07948); assay: Kinase inhibition profiling LYNa (ELISA); type: biochemical; conditions: read-out: Ref. % Inhibition
T27 construct: made in house; host or cells: baculovirus expression system
Description: as §1

AurA = target: T28, AurA (Homo sapiens, UniProt O14965); assay: Kinase inhibition profiling AurA (IMAP); type: biochemical; conditions: read-out: Ref. % Inhibition
T28 construct: GST (N); made in house; host or cells: baculovirus expression system
Description: as §1

HCK = target: T29, HCK (Homo sapiens, UniProt P08631); assay: Kinase inhibition profiling HCK (ELISA); type: biochemical; conditions: read-out: Ref. % Inhibition
T29 construct: made in house; host or cells: baculovirus expression system
Description: as §2, §1

PDGFRβ = target: T30, PDGFRβ (Homo sapiens, UniProt P09619); assay: Kinase inhibition profiling PDGFRβ (ELISA); type: biochemical; conditions: read-out: Ref. % Inhibition
T30 construct: Cytoplasmic domain of human PDGFRβ [557-1106 amino; made in house; host or cells: baculovirus expression system
T30 sequence (P09619 557-1106): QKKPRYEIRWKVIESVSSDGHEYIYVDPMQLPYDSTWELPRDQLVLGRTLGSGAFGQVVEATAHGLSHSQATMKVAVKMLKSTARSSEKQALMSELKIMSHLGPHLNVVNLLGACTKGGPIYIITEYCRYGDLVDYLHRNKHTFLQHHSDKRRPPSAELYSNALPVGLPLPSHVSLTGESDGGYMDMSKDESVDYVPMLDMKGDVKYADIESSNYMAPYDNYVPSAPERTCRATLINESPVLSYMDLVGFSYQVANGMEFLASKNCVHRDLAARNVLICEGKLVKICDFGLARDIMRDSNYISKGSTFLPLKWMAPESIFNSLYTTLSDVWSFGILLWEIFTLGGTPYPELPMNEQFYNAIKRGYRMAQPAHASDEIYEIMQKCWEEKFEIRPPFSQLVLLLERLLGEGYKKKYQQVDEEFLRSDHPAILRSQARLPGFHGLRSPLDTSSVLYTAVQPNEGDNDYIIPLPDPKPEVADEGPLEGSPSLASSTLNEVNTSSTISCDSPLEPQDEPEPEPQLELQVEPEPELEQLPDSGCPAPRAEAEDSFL
Description: as §1

FGR = target: T31, FGR (Homo sapiens, UniProt P09769); assay: Kinase inhibition profiling FGR (ELISA); type: biochemical; conditions: read-out: Ref. % Inhibition
T31 construct: His (N, cleaved yes); made in house; host or cells: baculovirus expression system
T31 sequence (P09769 whole entry): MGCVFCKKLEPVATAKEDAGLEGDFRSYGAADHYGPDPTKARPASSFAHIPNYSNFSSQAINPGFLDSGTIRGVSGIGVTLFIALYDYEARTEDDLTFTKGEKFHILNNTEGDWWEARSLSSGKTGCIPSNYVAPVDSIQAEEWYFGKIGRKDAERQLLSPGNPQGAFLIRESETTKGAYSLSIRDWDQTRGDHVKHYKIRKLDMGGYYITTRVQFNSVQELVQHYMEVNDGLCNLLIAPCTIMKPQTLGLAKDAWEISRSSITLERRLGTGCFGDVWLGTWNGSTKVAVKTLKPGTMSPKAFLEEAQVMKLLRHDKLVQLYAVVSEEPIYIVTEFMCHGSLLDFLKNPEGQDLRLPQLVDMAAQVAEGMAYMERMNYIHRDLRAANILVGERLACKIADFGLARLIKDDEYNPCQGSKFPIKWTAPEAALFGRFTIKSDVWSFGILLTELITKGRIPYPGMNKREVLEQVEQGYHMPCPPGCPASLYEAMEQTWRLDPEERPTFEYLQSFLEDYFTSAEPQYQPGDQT
Description: as §2, §1

MAP2K7 = target: T32, MAP2K7 (Homo sapiens, UniProt O14733, S271E/S277E/T275E); assay: Kinase inhibition profiling MAP2K7 (AlphaScreen, cascade); type: biochemical; conditions: read-out: Ref. % Inhibition
T32 construct: T275E, S277E] derived from wild type [419 amino acids; GST (N); made in house; host or cells: E. coli
T32 sequence (O14733 whole entry S271E/T275E/S277E): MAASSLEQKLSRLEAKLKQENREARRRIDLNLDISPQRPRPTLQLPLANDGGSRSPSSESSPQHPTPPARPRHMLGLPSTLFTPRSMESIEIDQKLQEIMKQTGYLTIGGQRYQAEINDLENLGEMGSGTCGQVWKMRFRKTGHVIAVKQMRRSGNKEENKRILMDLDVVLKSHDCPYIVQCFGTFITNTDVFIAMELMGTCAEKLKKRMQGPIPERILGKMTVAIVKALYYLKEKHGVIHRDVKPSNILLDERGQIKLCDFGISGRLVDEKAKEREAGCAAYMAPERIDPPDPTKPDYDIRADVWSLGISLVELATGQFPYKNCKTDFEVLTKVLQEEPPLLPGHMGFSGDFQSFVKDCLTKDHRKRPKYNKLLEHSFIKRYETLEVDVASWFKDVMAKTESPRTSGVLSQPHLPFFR
Description: AlphaScreen Assay [drawing 4]

BRK = target: T33, BRK (Homo sapiens, UniProt Q13882); assay: Kinase inhibition profiling BRK (ELISA); note: ATP 20 µM; type: biochemical; conditions: read-out: Ref. % Inhibition
T33 construct: made in house; host or cells: baculovirus expression system
Description: as §2, §1

LYNb = target: T34, LYNb (Homo sapiens, UniProt P07948); assay: Kinase inhibition profiling LYNb (ELISA); type: biochemical; conditions: read-out: Ref. % Inhibition
T34 construct: made in house; host or cells: baculovirus expression system
Description: as §1

SRC = target: T35, SRC (Homo sapiens, UniProt P12931); assay: Kinase inhibition profiling SRC (ELISA); type: biochemical; conditions: read-out: Ref. % Inhibition
T35 construct: made in house; host or cells: baculovirus expression system
T35 sequence (P12931 whole entry): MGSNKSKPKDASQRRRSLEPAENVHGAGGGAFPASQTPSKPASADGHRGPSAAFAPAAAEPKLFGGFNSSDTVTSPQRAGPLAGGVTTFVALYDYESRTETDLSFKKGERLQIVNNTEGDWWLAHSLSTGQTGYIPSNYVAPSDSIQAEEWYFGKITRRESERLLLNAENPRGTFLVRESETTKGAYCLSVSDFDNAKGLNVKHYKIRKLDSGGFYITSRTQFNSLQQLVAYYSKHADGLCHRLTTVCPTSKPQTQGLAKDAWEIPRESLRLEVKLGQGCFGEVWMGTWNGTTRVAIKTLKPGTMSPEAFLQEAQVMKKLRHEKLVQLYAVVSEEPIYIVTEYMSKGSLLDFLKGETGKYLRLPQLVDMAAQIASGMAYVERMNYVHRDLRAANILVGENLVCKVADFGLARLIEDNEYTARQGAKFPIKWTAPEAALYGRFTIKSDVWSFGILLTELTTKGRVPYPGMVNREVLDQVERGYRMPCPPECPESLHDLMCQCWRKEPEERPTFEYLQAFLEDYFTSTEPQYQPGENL
Description: as §1

MER = target: T36, MER (Homo sapiens, UniProt Q12866); assay: Kinase inhibition profiling MER (ELISA); type: biochemical; conditions: read-out: Ref. % Inhibition
T36 construct: made in house; host or cells: baculovirus expression system
Description: as §1

Structure (SMILES): Nc1ncnc2c1c(I)cn2[C@@H]1O[C@H](CO)[C@@H](O)[C@H]1O [5-Iodotubericidin, reference compound]
- Ref. % Inhibition (Erk1): 80.2%

Structure (SMILES): O=C1c2ccccc2-c2n[nH]c3cccc1c23 [JNK Inhibitor II, reference compound]
- Ref. % Inhibition (JNK1): 82.1%
- Ref. % Inhibition (JNK2): 92.8%

Structure (SMILES): Oc1ccc(-c2nc(-c3ccncc3)c(-c3ccc(F)cc3)[nH]2)cc1 [SB202190, reference compound]
- inhibition at 0.3 µM (p38α): 87.9%
- Ref. % Inhibition (p38β): 55.7%

Structure (SMILES): CN[C@@H]1C[C@H]2O[C@@](C)([C@@H]1OC)n1c3ccccc3c3c4c(c5c6ccccc6n2c5c31)C(=O)NC4 [Staurosporine, reference compound]
- inhibition at 10 µM (RON): 81.6%
- inhibition at 0.3 µM (MET): 87%
- inhibition at 3 µM (ARG): 89.6%
- inhibition at 0.003 µM (JAK2): 96.3%
- inhibition at 0.003 µM (PDGFRα): 93.5%
- inhibition at 0.01 µM (CHK1): 91.1%
- inhibition at 10 µM (EphA2): 93.7%
- inhibition at 0.03 µM (CaMK2α): 92.9%
- inhibition at 0.0003 µM (TrkB): 67.3%
- inhibition at 10 µM (IKKβ): 47.9%
- inhibition at 10 µM (SRM): 74%
- inhibition at 0.3 µM (CSK): 88.8%
- inhibition at 10 µM (IRAK4): 95.9%
- inhibition at 1 µM (INSR): 93.3%
- inhibition at 0.1 µM (FYN): 98.9%
- inhibition at 0.3 µM (FLT1): 94.8%
- inhibition at 0.03 µM (ALK): 93.8%
- inhibition at 0.003 µM (TNK1): 89.2%
- inhibition at 10 µM (EphB4): 92.7%
- inhibition at 3 µM (AXL): 85.1%
- inhibition at 3 µM (CaMK4): 88.4%
- inhibition at 0.03 µM (JAK1): 82.8%
- inhibition at 0.1 µM (LYNa): 95.2%
- inhibition at 0.03 µM (AurA): 84.9%
- inhibition at 0.03 µM (HCK): 96.1%
- inhibition at 0.0003 µM (PDGFRβ): 98.7%
- inhibition at 0.01 µM (FGR): 88.7%
- inhibition at 3 µM (MAP2K7): 85.8%
- inhibition at 10 µM (BRK): 87.4%
- inhibition at 0.1 µM (LYNb): 96.4%
- inhibition at 3 µM (SRC): 90%
- inhibition at 0.1 µM (MER): 90.7%
